Test results as given in US20240150356A1, “Pyrimidine amide compounds and use thereof” (ALPHALA CO., LTD., priority 2019, published 2024).

tested on: Hep3B cells (hepatocellular carcinoma cell line); test: In vitro MTS cell viability assay (NCI-60 methodology), Hep3B; format: cell-based; conditions: Homo sapiens, 48 h, Table 1, MTS, 2 days drug incubation, 50% reduction vs time zero, read-out: Hep3B LC50
Procedure: The cell viability measurement is based on the NCI-60 screening methodology (Nat. Rev. Cancer 6, 813-823, 2006). Briefly, cells are inoculated into 96-well plates at the optimal plating density. After 24 h, one of the two plates for Hep3B cell line is processed to determine a time zero cell viability (Tz) by MTS assay (Promega). Compounds are added over a 2-fold serial dilution to provide a total five drug concentrations plus DMSO control. Plates are incubated for a further 2 days, then measured cell viability by MTS assay [control growth (C) and test growth in the presence of drug at the five concentration levels (Ti)]. The LC50 is calculated from [(Ti−Tz)/Tz]×100=−50, which is the drug concentration resulting in a 50% reduction at the end of the drug treatment as compared to that at the beginning.
The compounds prepared in Tables 1-10 were tested in three in vitro assays, and the results are shown in Tables 1-10 for Hep3B and Table 11 for SW480 and NCI-H460 shown below. Herein, Hep3B refers to hepatocellular carcinoma cell line, SW480 refers to colon adenocarcinoma cell line, and NCI-H460 refers to human lung cancer cell line.
Shown in following Tables 1 to 10 are the structures and in vitro activities of exemplary compounds of formula (I).

First: Cn1ncc2c(NC(=O)c3ccc([N+](=O)[O-])s3)nc(C#Cc3ccc(OC(F)(F)F)cc3)nc21 [Compound 1-14, N-(1-methyl-6-((4-(trifluoromethoxy)phenyl)ethynyl)-1H-pyrazolo[3,4,d]pyrimidin-4-yl)-5-nitrothiophene-2-carboxamide]
Second: O=C(Nc1nc(-c2ccc(OC(F)(F)F)cc2)nc2c1cnn2CCN1CCC(F)(F)C1)c1ccc([N+](=O)[O-])s1 [Compound 1-32, N-(1-(2-(3,3-difluoropyrrolidin-1-yl)ethyl)-6-(4-(trifluoromethoxy)phenyl)-1H-pyrazolo[3,4-d]pyrimidin-4-yl)-5-nitrothiophene-2-carboxamide]
The LC50 of the first is 2.2-fold higher: 1670 nM for the first, 770 nM for the second.

same assay, conditions: Homo sapiens, 48 h, Table 4, MTS, 2 days drug incubation, 50% reduction vs time zero, read-out: Hep3B LC50

Compared with `Cc1csc2c(NC(=O)c3ccc([N+](=O)[O-])s3)nc(N3CCC(F)(F)C3)nc12` [Compound 4-11, N-(2-(3,3-difluoropyrrolidin-1-yl)-7-methylthieno[3,2-d]pyrimidin-4-yl)-5-nitrothiophene-2-carboxamide], `Cc1csc2c(NC(=O)c3ccc([N+](=O)[O-])s3)nc(-c3cccc(C(F)(F)F)c3)nc12` [Compound 4-3, N-(7-methyl-2-(3-(trifluoromethyl)phenyl)thieno[3,2-1]pyrimidin-4-yl)-5-nitrothiophene-2-carboxamide] is 3.6-fold lower in LC50: 3180 nM for the first, 880 nM for the second.

same assay, conditions: Homo sapiens, 48 h, Table 5, MTS, 2 days drug incubation, 50% reduction vs time zero, read-out: Hep3B LC50

First: O=C(Nc1nc(-c2ccc(Cl)s2)nc2c1cnn2-c1ccccc1)c1ccc([N+](=O)[O-])s1 [Compound 5-19, N-(6-(5-chlorothiophen-2-yl)-1-phenyl-1H-pyrazolo[3,4-d]pyrimidin-4-yl)-5-nitrothiophene-2-carboxamide]
Second: O=C(Nc1nc(-c2ccco2)nc2c1cnn2-c1ccccc1)c1ccc([N+](=O)[O-])s1 [Compound 5-17, N-(6-(furan-2-yl)-1-phenyl-1H-pyrazolo[3,4-d]pyrimidin-4-yl)-5-nitrothiophene-2-carboxamide]
The LC50 of the first is 2.4-fold lower: 170 nM for the first, 400 nM for the second.

Going from `C=CC(=O)N1CCC(c2nc(NC(=O)c3ccc([N+](=O)[O-])s3)c3cnn(-c4ccccc4)c3n2)CC1` [Compound 5-2, N-(6-(1-acryloylpiperidin-4-yl)-1-phenyl-1H-pyrazolo[3,4-d]pyrimidin-4-yl)-5-nitrothiophene-2-carboxamide] to `N#C[C@@H]1CCN(c2nc(NC(=O)c3ccc([N+](=O)[O-])s3)c3cnn(-c4ccccc4)c3n2)C1` [Compound 5-5, (R)—N-(6-(3-cyanopyrrolidin-1-yl)-1-phenyl-1H-pyrazolo[3,4-d]pyrimidin-4-yl)-5-nitrothiophene-2-carboxamide], the LC50 falls from 2470 nM to 500 nM (4.9-fold).

With `O=C(Nc1nc(Sc2ccc(Cl)cc2)nc2c1cnn2-c1ccccc1)c1ccc([N+](=O)[O-])s1` [Compound 5-16] the LC50 was 360 nM.

same assay, conditions: Homo sapiens, 48 h, Table 6, MTS, 2 days drug incubation, 50% reduction vs time zero, read-out: Hep3B LC50

`O=C(Nc1nc(N2CCC(F)(F)CC2)nc2c1cnn2-c1ccc(F)cc1)c1ccc([N+](=O)[O-])s1` [Compound 6-98, N-(6-(4,4-difluoropiperidin-1-yl)-1-(4-fluorophenyl)-1H-pyrazolo[3,4-d]pyrimidin-4-yl)-5-nitrothiophene-2-carboxamide] and `O=C(Nc1nc(-c2ccsc2)nc2c1cnn2-c1ccc(F)cc1)c1ccc([N+](=O)[O-])s1` [Compound 6-107] are within 1.5-fold of each other in LC50: 430 nM for the first, 370 nM for the second.

`O=C(Nc1nc(-c2ccc3c(c2)OCO3)nc2c1cnn2-c1cccc(F)c1)c1ccc([N+](=O)[O-])s1` [Compound 6-92, N-(6-(benzo[d][1,3]dioxol-5-yl)-1-(3-fluorophenyl)-1H-pyrazolo[3,4-d]pyrimidin-4-yl)-5-nitrothiophene-2-carboxamide] and `Cc1ccc(-n2ncc3c(NC(=O)c4ccc([N+](=O)[O-])s4)nc(-c4ccc5c(c4)OCO5)nc32)cc1` [Compound 6-9] are within 1.5-fold of each other in LC50: 450 nM for the first, 400 nM for the second.

Compared with `Cc1ccccc1-n1ncc2c(NC(=O)c3ccc([N+](=O)[O-])s3)nc(-c3ccc(F)nc3)nc21` [Compound 6-2], `COc1ccc(-c2nc(NC(=O)c3ccc([N+](=O)[O-])s3)c3cnn(-c4ccc(C)cc4)c3n2)cn1` [Compound 6-6, N-(6-(6-methoxypyridin-3-yl)-1-(p-tolyl)-1H-pyrazolo[3,4-d]pyrimidin-4-yl)-5-nitrothiophene-2-carboxamide] is lower in LC50: greater than 3000 nM for the first, 400 nM for the second.

Going from `COc1ccc(-n2ncc3c(NC(=O)c4ccc([N+](=O)[O-])s4)nc(OC4CCCCC4)nc32)cc1` [Compound 6-16, N-(6-(cyclohexyloxy)-1-(4-methoxyphenyl)-1H-pyrazolo[3,4-d]pyrimidin-4-yl)-5-nitrothiophene-2-carboxamide] to `CCCOc1ccc(-c2nc(NC(=O)c3ccc([N+](=O)[O-])s3)c3cnn(-c4ccc(OC)cc4)c3n2)cn1` [Compound 6-25], the LC50 falls from 1360 nM to 210 nM (6.5-fold).

Going from `CCOCCOCCOc1cc(C)c(-c2nc(NC(=O)c3ccc([N+](=O)[O-])s3)c3cnn(-c4ccc(F)cc4)c3n2)cn1` [Compound 6-139, N-(6-(6-(2-(2-ethoxyethoxy)ethoxy)-4-methylpyridin-3-yl)-1-(4-fluorophenyl)-1H-pyrazolo[3,4-d]pyrimidin-4-yl)-5-nitrothiophene-2-carboxamide] to `CCOCCOCCOc1ccc(-c2nc(NC(=O)c3ccc([N+](=O)[O-])s3)c3cnn(-c4cccc(F)c4)c3n2)cn1` [Compound 6-96, N-(6-(6-(2-(2-ethoxyethoxy)ethoxy)pyridin-3-yl)-1-(3-fluorophenyl)-1H-pyrazolo[3,4-d]pyrimidin-4-yl)-5-nitrothiophene-2-carboxamide], the LC50 rises from 210 nM to 350 nM (1.7-fold).

`CCOCCOc1ccc(-c2nc(NC(=O)c3ccc([N+](=O)[O-])s3)c3cnn(-c4ccc(F)cc4)c3n2)cn1` [Compound 6-136, N-(6-(6-(2-ethoxyethoxy)pyridin-3-yl)-1-(4-fluorophenyl)-1H-pyrazolo[3,4-d]pyrimidin-4-yl)-5-nitrothiophene-2-carboxamide] and `COc1ccc(-n2ncc3c(NC(=O)c4ccc([N+](=O)[O-])s4)nc(-c4ccc5c(c4)OCO5)nc32)cc1` [Compound 6-24, N-(6-(benzo[d][1,3]dioxol-5-yl)-1-(4-methoxyphenyl)-1H-pyrazolo[3,4-d]pyrimidin-4-yl)-5-nitrothiophene-2-carboxamide] are within 1.5-fold of each other in LC50: 260 nM for the first, 190 nM for the second.

`O=C(Nc1nc(-c2ccc(C(F)(F)F)cc2C(F)(F)F)nc2c1cnn2-c1cccc(Cl)c1)c1ccc([N+](=O)[O-])s1` [Compound 6-42] and `CC(C)(C)c1ccc(-n2ncc3c(NC(=O)c4ccc([N+](=O)[O-])s4)nc(-n4cc(C(F)(F)F)cn4)nc32)cc1` [Compound 6-78, N-(1-(4-(ter-butyl)phenyl)-6-(4-(trifluoromethyl)-1H-pyrazol-1-yl)-1H-pyrazolo[3,4-d]pyrimidin-4-yl)-5-nitrothiophene-2-carboxamide] are within 1.5-fold of each other in LC50: 760 nM for the first, 570 nM for the second.

same assay, conditions: Homo sapiens, 48 h, Table 7, MTS, 2 days drug incubation, 50% reduction vs time zero, read-out: Hep3B LC50

Compared with `CCOCCOCCOc1ccc(-c2nc(NC(=O)c3ccc([N+](=O)[O-])s3)c3cnn(-c4ccc(C(F)(F)F)cn4)c3n2)cn1` [Compound 7-7, N-(6-(6-(2-(2-ethoxyethoxy)ethoxy)pyridin-3-yl)-1-(5-(trifluoromethyl)pyridin-2-yl)-1H-pyrazolo[3,4-d]pyrimidin-4-yl)-5-nitrothiophene-2-carboxamide], `O=C(Nc1nc(-c2ccc(F)nc2)nc2c1cnn2-c1ccc(C(F)(F)F)cn1)c1ccc([N+](=O)[O-])s1` [Compound 7-2, N-(6-(6-fluoropyridin-3-yl)-1-(5-(trifluoromethyl)pyridin-2-yl)-1H-pyrazolo[3,4,d]pyrimidin-4-yl)-5-nitrothiophene-2-carboxamide] is 3.3-fold lower in LC50: 500 nM for the first, 150 nM for the second.

same assay, conditions: Homo sapiens, 48 h, Table 8, MTS, 2 days drug incubation, 50% reduction vs time zero, read-out: Hep3B LC50

`COC(=O)c1ccc(-c2nc(NC(=O)c3ccc([N+](=O)[O-])s3)c3cnn(C4CCCCCC4)c3n2)cc1` [Compound 8-12, methyl 4-(1-cycloheptyl-4-(5-nitrothiophene-2-carboxamido)-1H-pyrazolo[3,4-d]pyrimidin-6-yl)benzoate] and `C[C@@H]1C[C@@H](n2ncc3c(NC(=O)c4ccc([N+](=O)[O-])s4)nc(-c4ccc(F)nc4)nc32)CC(C)(C)C1` [Compound 8-14, N-(6-(6-fluoropyridin-3-yl)-1-((1R,5S)-3,3,5-trimethylcyclohexyl)-1H-pyrazolo[3,4-d]pyrimidin-4-yl)-5-nitrothiophene-2-carboxamide] are within 1.5-fold of each other in LC50: 470 nM for the first, 620 nM for the second.

same assay, conditions: Homo sapiens, 48 h, Table 10, MTS, 2 days drug incubation, 50% reduction vs time zero, read-out: Hep3B LC50

`O=C(Nc1nc(-c2ccsc2)nc2c1cnn2C1CCCCC1)c1ccc([N+](=O)[O-])s1` [Compound 10-6, N-(1-cyclohexyl-6-(thiophen-3-yl)-1H-pyrazolo[3,4-d]pyrimidin-4-yl)-5-nitrothiophene-2-carboxamide] and `O=C(Nc1nc(-c2ccc(Cl)c(Cl)c2)nc2c1cnn2C1CCCCC1)c1ccc([N+](=O)[O-])s1` [Compound 10-43, N-(1-cyclohexyl-6-(3,4-dichlorophenyl)-1H-pyrazolo[3,4,d]pyrimidin-4-yl)-5-nitrothiophene-2-carboxamide] are within 1.5-fold of each other in LC50: 1030 nM for the first, 770 nM for the second.

Compound `CCOc1ccc(-c2nc(NC(=O)c3ccc([N+](=O)[O-])s3)c3cnn(C4CCCCC4)c3n2)cc1Cl` [Compound 10-44] has an LC50 greater than 2000 nM.
